Values quoted from earlier work, collected in patent US20080138409A1, “OLANZAPINE PHARMACEUTICAL COMPOSITION” (priority 2006, published 2008).

Conditions: pH 6.8; free base

Cc1cc2c(s1)Nc1ccccc1N=C2N1CCN(C)CC1 [Olanzapine]
solubility: about 0.02 mg/ml
